In US9023987B2, “Cell-permeable peptide” (Seoul National University R&DB Foundation, priority 2010, dated 2015):

How the values were obtained:
[1] = tested on: human mesenchymal stem cells (hMSC); test: Cell permeability by fluorescence imaging (confocal scanning microscope); format: cell-based; conditions: FITC/fluorescence-labeled, FIG. 3A, FIG. 7
Procedure: The domains synthesized in Example 1 and Comparative Examples 1 and 2 were labeled with a fluorescent material in order to measure cell permeability. 10 equivalents of fluorescein isothiocyanate (FITC) was bound to N-terminals of the synthesized domains by using triethylamine (1 ml per 1 g of resin). The synthesis of the peptide was confirmed by measuring the molecular weight thereof through MALDI-TOF.
In order to measure the cell permeability of the cell permeable peptide-bone differentiation inducing sequence conjugate, after sterile slide glass was input in a 6-well plate and 2×10^4 human mesenchymal stem cells (hMSC) were plated in each well, the cells were cultured in a general medium for 20 hours (overnight incubation). Then the cells was cultured in an hMSC basal medium (MSCBM, LONZA, USA) containing 0.5% fetal bovine serum (FBS, GIBCO, USA) for 20 hours (overnight starvation). […] fluorescence labeled cell permeable peptide-bone differentiation inducing sequence conjugate and […] fluorescence labeled bone differentiation inducing sequence that were obtained by binding FITC (SIGMA, USA) N-terminals of the cell permeable peptide-bone differentiation inducing sequence conjugate synthesized by the method in Example 1 and the domain in Comparative Example 2 to synthesize the fluorescence label conjugate and fluorescence label domain, followed by isolation and purification, were injected into each well and washed with phosphate buffer solution (PBS) two times after 20 minutes and 80 minutes of injection. The resultants was observed using a confocal scanning microscope (IX 70, Olympus Co., Tokyo, Japan).

[2] = tested on: human mesenchymal stem cells (hMSC); test: Cytotoxicity by MTT assay; format: cell-based; design: dose or concentration left out as unconfirmed; conditions: 24, 48, and 72 hours, FIG. 5
Procedure: In order to confirm whether or not cell proliferation is affected by potential toxicity when the cell permeable peptide-bone differentiation inducing sequence conjugate and control domains are cultured with hMSC, a 3-[4,5-dimethylthiazo-2-yl]-2,5-diphenyl tetrazolium bromide thiazolyl blue (MTT) assay method was used.
The MTT assay method is a method for measuring cytotoxicity by measuring absorbance of formazan produced as mitochondrial dehydrogenases in alive and metabolically active cells reduces MTT to indicate the absorbance as a percentage based on the control group. In this case, the measured absorbance reflects a concentration of the alive and metabolically active cells. 2,3,5-triphenyl tetrazolium chloride (TTC) is reduced to formazan in live cells. The formazan is insoluble purple color, and a respiration rate may be measured by a degree of color. The absorbance of formazan is maximal at 540 nm, and the absorbance measured at this wavelength reflects the concentration of the alive and metabolically active cells. Since a linear relationship between the absorbance and the concentration of the cells is not established when a concentration of cells in well to be measured is excessively high or low, a process of determining an optimal concentration of the cells was performed. […]

With “NH2-GAPPPADSAP-SSRKKNPNCRRH-C-COONH2 (H-GAPPPADSAPSSRKKNPNCRRHC-NH2; cysteine pairing not given here) [Example 1]” the “intracellular fluorescence after 20 minutes (confocal)” value ([1]; 20 minutes) was “fluorescent particles were observed in the cytoplasm”, the “intracellular fluorescence after 80 minutes (confocal)” value ([1]; 80 minutes) was “clearly observed in the cytoplasm and nucleus” and the “cytotoxicity (MTT, cell proliferation ability compared with PBS)” value [2] was “did not exhibit cytotoxicity”.
